Experimental data published in article PMC12420824, “Discovery of a selective alpha-kinase 1 inhibitor for the rare genetic disease ROSAH syndrome” (Nature Communications, 2025).

How the values were obtained:
Assay in all cases: HotSpot kinase assay
Conditions in all cases: read-out: % Enzyme Activity (relative to DMSO control), 10 uM
OSR1/OXSR1 = OSR1/OXSR1 (Homo sapiens, UniProt O95747)
Text: (§1) Additionally, a 10-dose dilution series of staurosporine and other enzyme-appropriate compounds were included as positive control inhibitors.

PASK = PASK (Homo sapiens, UniProt Q96RG2)
Text: as §1

MST4 = MST4 (Homo sapiens, UniProt Q9P289)
Text: as §1

MEKK6 = MEKK6 (Homo sapiens, UniProt O95382)
Text: as §1

DAPK2 = DAPK2 (Homo sapiens, UniProt Q9UIK4)
Text: as §1

P38a/MAPK14 = P38a/MAPK14 (Homo sapiens, UniProt Q16539)
Chain of P38a/MAPK14 (Q16539 whole entry): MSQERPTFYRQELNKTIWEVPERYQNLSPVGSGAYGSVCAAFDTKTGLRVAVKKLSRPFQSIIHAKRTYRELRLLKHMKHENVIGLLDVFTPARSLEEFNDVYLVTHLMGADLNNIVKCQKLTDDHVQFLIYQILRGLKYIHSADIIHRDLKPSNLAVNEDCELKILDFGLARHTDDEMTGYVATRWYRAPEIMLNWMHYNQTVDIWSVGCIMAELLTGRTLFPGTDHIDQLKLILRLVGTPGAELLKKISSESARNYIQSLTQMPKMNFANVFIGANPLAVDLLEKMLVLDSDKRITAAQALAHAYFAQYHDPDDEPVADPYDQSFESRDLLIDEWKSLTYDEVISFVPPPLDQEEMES
Text: as §1

NEK11 = NEK11 (Homo sapiens, UniProt Q8NG66)
Text: as §1

PKCeta = PKCeta (Homo sapiens, UniProt P24723)
Text: as §1

MYO3A = MYO3A (Homo sapiens, UniProt Q8NEV4)
Text: as §1

EIF2AK3 = EIF2AK3 (Homo sapiens, UniProt Q9NZJ5)
Text: as §1

TYK2 = TYK2 (Homo sapiens, UniProt P29597)
Chain of TYK2 (P29597 whole entry): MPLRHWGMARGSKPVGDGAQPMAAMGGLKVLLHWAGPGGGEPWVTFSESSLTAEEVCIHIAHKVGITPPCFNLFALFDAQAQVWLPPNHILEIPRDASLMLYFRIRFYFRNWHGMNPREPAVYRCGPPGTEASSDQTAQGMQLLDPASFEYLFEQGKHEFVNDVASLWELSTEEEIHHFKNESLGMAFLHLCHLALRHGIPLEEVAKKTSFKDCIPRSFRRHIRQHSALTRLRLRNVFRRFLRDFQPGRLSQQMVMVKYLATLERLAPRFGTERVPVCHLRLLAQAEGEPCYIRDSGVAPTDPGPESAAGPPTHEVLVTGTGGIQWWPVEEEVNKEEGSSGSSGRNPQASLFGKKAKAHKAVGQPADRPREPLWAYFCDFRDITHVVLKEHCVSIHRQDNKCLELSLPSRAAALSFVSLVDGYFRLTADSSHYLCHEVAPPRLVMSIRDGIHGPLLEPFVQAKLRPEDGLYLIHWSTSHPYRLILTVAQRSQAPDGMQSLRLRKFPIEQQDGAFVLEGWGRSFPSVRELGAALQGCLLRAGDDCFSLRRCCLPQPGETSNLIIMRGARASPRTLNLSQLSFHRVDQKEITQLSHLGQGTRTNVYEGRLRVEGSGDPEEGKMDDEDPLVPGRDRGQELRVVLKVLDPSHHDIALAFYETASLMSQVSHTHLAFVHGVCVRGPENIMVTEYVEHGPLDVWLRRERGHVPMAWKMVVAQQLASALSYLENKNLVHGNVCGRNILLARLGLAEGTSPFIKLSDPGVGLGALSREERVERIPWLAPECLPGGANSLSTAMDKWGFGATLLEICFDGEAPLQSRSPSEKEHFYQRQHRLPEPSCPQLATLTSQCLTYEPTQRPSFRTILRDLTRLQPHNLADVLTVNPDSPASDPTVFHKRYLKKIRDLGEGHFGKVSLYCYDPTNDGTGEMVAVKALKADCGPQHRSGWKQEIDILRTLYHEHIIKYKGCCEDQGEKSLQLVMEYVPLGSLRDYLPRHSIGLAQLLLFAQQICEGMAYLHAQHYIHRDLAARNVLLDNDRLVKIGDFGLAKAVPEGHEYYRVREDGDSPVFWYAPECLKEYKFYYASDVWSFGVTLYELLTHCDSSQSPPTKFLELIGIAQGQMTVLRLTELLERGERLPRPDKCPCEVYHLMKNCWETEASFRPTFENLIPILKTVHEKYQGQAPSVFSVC
Text: as §1

AMPK (A2/B1/G2) = AMPK (A2/B1/G2) (Homo sapiens, UniProt P54646)
Text: as §1

JAK1 = JAK1 (Homo sapiens, UniProt P23458)
Text: as §1

AMPK(A2/B2/G3) = AMPK(A2/B2/G3) (Homo sapiens, UniProt P54646)
Text: as §1

LCK2/ICK = LCK2/ICK (Homo sapiens, UniProt Q9UPZ9)
Text: as §1

MYLK4 = MYLK4 (Homo sapiens, UniProt Q86YV6)
Chain of MYLK4 (Q86YV6 whole entry): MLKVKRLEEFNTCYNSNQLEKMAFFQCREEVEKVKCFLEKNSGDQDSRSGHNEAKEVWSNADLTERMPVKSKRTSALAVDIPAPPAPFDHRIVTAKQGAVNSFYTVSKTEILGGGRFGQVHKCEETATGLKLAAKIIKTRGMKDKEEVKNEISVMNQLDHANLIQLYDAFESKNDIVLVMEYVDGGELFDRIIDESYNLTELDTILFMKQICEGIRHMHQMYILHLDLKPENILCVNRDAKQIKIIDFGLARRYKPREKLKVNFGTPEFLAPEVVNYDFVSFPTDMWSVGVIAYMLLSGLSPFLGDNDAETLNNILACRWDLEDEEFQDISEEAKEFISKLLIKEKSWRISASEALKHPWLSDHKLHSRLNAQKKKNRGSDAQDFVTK
Text: as §1

PIM2 = PIM2 (Homo sapiens, UniProt Q9P1W9)
Chain of PIM2 (Q9P1W9 whole entry): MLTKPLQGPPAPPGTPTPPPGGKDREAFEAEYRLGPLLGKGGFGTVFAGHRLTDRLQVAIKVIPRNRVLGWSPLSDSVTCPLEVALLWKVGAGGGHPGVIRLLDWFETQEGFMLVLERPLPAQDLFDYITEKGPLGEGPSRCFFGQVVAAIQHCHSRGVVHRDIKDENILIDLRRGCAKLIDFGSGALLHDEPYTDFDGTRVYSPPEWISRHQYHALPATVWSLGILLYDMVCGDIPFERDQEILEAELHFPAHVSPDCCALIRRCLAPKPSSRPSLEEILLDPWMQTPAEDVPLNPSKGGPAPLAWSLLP
Text: as §1

RSK4 = RSK4 (Homo sapiens, UniProt Q9UK32)
Text: as §1

NEK6 = NEK6 (Homo sapiens, UniProt Q9HC98)
Text: as §1

PKCzeta = PKCzeta (Homo sapiens, UniProt Q05513)
Text: as §1

HGK/MAP4K4 = HGK/MAP4K4 (Homo sapiens, UniProt O95819)
Text: as §1

MASTL = MASTL (Homo sapiens, UniProt Q96GX5)
Text: as §1

TRKC = TRKC (Homo sapiens, UniProt Q16288)
Text: as §1

CDK4/cyclin D1 = CDK4/cyclin D1 (Homo sapiens, UniProt P11802)
Text: as §1

AMPK(A1/B1/G3) = AMPK(A1/B1/G3) (Homo sapiens, UniProt Q13131)
Text: as §1

CDK8/cyclin C = CDK8/cyclin C (Homo sapiens, UniProt P49336)
Chain of CDK8/cyclin C (P49336 whole entry): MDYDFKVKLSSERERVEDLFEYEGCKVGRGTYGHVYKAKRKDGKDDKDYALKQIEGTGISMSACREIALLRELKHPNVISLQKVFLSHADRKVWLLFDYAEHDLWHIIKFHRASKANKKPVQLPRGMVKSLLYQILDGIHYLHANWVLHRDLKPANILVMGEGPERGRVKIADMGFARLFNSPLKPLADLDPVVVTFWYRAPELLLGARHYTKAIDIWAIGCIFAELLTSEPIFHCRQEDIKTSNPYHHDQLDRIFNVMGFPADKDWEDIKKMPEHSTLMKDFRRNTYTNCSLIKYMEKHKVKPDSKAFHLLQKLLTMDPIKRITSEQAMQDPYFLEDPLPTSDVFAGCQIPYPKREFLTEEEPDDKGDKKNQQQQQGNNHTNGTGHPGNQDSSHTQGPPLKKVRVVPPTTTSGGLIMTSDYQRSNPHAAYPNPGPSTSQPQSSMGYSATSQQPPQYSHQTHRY
Chain of CDK8/cyclin C (P24863 whole entry partner): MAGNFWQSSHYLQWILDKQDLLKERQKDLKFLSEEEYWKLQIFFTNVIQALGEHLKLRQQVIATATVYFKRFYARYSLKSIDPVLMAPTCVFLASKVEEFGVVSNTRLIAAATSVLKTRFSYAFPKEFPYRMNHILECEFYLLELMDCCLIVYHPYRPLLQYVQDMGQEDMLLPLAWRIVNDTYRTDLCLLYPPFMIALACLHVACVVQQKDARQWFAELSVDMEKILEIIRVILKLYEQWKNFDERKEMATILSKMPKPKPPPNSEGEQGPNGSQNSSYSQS
Text: as §1

PKCg = PKCg (Homo sapiens, UniProt P05129)
Text: as §1

IRAK4 = IRAK4 (Homo sapiens, UniProt Q9NWZ3)
Chain of IRAK4 (Q9NWZ3 whole entry): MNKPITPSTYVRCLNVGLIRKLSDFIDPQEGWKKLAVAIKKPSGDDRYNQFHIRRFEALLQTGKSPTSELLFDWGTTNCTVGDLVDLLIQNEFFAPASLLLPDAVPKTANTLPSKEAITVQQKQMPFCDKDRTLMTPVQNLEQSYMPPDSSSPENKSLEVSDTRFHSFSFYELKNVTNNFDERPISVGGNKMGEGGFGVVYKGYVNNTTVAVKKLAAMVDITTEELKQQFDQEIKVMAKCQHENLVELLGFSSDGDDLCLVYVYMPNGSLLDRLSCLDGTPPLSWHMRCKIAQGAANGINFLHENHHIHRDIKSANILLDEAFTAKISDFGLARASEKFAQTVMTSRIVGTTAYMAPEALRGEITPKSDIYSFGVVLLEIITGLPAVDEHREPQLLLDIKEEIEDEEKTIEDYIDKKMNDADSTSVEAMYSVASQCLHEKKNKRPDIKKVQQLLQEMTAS
Text: as §1

TTBK2 = TTBK2 (Homo sapiens, UniProt Q6IQ55)
Text: as §1

STK39/STLK3 = STK39/STLK3 (Homo sapiens, UniProt Q9UEW8)
Text: as §1

CDK6/cyclin D1 = CDK6/cyclin D1 (Homo sapiens, UniProt Q00534)
Text: as §1

MAK = MAK (Homo sapiens, UniProt P20794)
Text: as §1

FRK/PTK5 = FRK/PTK5 (Homo sapiens, UniProt P42685)
Text: as §1

ALK5/TGFBR1 = ALK5/TGFBR1 (Homo sapiens, UniProt P36897)
Chain of ALK5/TGFBR1 (P36897 34-503): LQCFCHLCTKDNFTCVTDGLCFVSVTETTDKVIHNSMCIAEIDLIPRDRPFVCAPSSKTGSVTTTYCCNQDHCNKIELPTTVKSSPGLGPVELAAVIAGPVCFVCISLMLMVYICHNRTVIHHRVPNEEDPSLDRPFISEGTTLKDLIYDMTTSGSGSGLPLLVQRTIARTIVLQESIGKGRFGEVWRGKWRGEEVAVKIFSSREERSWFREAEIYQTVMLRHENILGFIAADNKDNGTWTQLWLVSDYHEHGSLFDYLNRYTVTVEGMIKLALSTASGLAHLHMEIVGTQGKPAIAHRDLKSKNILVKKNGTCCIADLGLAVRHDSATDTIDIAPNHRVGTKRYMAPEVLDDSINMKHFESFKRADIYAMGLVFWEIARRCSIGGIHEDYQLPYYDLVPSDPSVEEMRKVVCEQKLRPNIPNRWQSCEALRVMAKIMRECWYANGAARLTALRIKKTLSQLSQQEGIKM
Text: as §1

GRK3 = GRK3 (Homo sapiens, UniProt P35626)
Text: as §1

AMPK(A1/B1/G2) = AMPK(A1/B1/G2) (Homo sapiens, UniProt Q13131)
Text: as §1

ALK6/BMPR1B = ALK6/BMPR1B (Homo sapiens, UniProt O00238)
Chain of ALK6/BMPR1B (O00238 14-502): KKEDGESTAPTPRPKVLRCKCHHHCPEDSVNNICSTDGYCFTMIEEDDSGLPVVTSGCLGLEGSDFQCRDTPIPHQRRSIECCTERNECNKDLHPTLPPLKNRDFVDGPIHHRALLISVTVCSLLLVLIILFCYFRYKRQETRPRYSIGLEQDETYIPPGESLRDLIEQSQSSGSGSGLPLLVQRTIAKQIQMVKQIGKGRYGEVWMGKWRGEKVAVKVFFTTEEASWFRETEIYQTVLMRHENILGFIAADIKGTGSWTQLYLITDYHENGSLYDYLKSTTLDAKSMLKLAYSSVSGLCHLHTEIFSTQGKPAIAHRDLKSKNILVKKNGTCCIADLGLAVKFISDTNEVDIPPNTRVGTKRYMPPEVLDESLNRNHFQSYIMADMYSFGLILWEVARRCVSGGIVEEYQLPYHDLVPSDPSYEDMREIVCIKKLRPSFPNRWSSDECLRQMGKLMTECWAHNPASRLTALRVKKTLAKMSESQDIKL
Text: as §1

PKCa = PKCa (Homo sapiens, UniProt P17252)
Text: as §1

EPHA4 = EPHA4 (Homo sapiens, UniProt P54764)
Text: as §1

Chain of MST4 (Q9P289 whole entry): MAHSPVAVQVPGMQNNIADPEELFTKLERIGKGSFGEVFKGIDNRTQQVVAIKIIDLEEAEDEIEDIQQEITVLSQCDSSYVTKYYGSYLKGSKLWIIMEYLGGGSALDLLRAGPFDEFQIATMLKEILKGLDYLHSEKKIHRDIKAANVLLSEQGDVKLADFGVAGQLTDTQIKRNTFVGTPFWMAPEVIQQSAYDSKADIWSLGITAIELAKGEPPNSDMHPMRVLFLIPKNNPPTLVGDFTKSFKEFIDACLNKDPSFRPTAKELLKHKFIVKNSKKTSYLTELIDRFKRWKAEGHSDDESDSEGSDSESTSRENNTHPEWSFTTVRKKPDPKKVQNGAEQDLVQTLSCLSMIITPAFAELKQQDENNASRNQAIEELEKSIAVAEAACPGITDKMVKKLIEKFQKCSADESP

For `C#C[C@@](C)(c1ccc(Cl)cc1)c1csc(NC(=O)c2c(F)cc(N3CCNCC3)cc2F)n1` (stereo in doubt) [DF-003], the remaining activity at 10 µM (OSR1/OXSR1) was 48.8%, the remaining activity at 10 µM (PASK) was 56.5% and the remaining activity at 10 µM (MST4) was 69.3%. For the same compound, the remaining activity at 10 µM (MEKK6) was 73.4%, the remaining activity at 10 µM (DAPK2) was 73.9% and the remaining activity at 10 µM (P38a/MAPK14) was 74.6%. The remaining activity at 10 µM (NEK11) was 75.3%, the remaining activity at 10 µM (PKCeta) was 75.3% and the remaining activity at 10 µM (MYO3A) was 75.5%. The remaining activity at 10 µM (EIF2AK3) was 81.9%, the remaining activity at 10 µM (TYK2) was 82.7% and the remaining activity at 10 µM (AMPK (A2/B1/G2)) was 82.9%. The remaining activity at 10 µM (JAK1) was 84.6%, the remaining activity at 10 µM (AMPK(A2/B2/G3)) was 85% and the remaining activity at 10 µM (LCK2/ICK) was 86.9%. It also gave a remaining activity at 10 µM (MYLK4) of 87.1%, a remaining activity at 10 µM (PIM2) of 87.6% and a remaining activity at 10 µM (RSK4) of 88.3%. The remaining activity at 10 µM (NEK6) was 88.5%, the remaining activity at 10 µM (PKCzeta) was 89.4% and the remaining activity at 10 µM (HGK/MAP4K4) was 90.5%. The remaining activity at 10 µM (MASTL) was 90.6%, the remaining activity at 10 µM (TRKC) was 91% and the remaining activity at 10 µM (CDK4/cyclin D1) was 91.3%. For the same compound, the remaining activity at 10 µM (AMPK(A1/B1/G3)) was 92.7%, the remaining activity at 10 µM (CDK8/cyclin C) was 92.9% and the remaining activity at 10 µM (PKCg) was 93.5%. It also gave a remaining activity at 10 µM (IRAK4) of 95.5%, a remaining activity at 10 µM (TTBK2) of 98.2% and a remaining activity at 10 µM (STK39/STLK3) of 98.7%. For the same compound, the remaining activity at 10 µM (CDK6/cyclin D1) was 99.8%, the remaining activity at 10 µM (MAK) was 100% and the remaining activity at 10 µM (FRK/PTK5) was 101%. For the same compound, the remaining activity at 10 µM (ALK5/TGFBR1) was 103%, the remaining activity at 10 µM (GRK3) was 111% and the remaining activity at 10 µM (AMPK(A1/B1/G2)) was 114%. The remaining activity at 10 µM (ALK6/BMPR1B) was 123%, the remaining activity at 10 µM (PKCa) was 134% and the remaining activity at 10 µM (EPHA4) was 161%.
